{"source": "ChEMBL document CHEMBL5465560", "about": "“Selectivity Literature for EUbOPEN Chemogenomic Library” (2024)", "key": {"[1]": {"target": "T1, Mitogen-activated protein kinase kinase kinase 12 (Homo sapiens) (UniProt Q12852)", "T1 sequence (whole entry)": "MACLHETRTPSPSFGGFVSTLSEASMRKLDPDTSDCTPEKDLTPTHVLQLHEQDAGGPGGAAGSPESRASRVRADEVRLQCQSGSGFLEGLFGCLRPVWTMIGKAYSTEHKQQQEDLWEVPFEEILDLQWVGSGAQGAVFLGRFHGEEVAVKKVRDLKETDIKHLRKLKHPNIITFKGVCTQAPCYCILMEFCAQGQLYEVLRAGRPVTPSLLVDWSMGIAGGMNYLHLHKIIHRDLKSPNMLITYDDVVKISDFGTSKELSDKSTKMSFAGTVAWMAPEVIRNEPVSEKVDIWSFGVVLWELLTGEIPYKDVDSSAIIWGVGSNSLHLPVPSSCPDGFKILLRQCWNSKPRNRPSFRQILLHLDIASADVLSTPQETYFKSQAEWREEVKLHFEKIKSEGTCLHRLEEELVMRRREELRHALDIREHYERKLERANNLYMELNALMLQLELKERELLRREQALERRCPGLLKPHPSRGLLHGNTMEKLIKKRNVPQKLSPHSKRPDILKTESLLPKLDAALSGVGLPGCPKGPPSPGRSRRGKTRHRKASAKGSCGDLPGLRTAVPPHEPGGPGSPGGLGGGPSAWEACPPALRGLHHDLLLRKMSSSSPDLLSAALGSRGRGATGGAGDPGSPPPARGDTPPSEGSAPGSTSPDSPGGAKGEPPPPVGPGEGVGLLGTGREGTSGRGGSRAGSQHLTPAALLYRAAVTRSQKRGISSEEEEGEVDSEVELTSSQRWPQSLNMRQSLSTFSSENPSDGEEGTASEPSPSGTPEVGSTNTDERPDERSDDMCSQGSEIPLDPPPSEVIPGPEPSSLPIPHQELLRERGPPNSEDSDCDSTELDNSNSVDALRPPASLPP", "assay": "Selectivity interaction (KinomeScan (DiscoverX)) EUB0000607a MAP3K12", "settings": "at 10 µM"}, "[2]": {"target": "Mitogen-activated protein kinase 8 (Homo sapiens, UniProt P45983)", "sequence (P45983 whole entry)": "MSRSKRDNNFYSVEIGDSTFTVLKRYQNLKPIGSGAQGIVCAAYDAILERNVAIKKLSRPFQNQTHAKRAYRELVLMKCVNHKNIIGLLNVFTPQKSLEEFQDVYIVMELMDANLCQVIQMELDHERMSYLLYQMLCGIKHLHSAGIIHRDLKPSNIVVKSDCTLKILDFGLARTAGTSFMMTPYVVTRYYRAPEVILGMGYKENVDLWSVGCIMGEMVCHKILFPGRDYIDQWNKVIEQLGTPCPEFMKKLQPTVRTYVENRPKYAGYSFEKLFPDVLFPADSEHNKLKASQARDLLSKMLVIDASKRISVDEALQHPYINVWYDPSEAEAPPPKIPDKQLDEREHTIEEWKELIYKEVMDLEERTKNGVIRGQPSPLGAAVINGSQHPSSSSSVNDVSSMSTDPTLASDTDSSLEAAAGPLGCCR", "assay": "Selectivity interaction (KinomeScan (DiscoverX)) EUB0000607a MAPK8", "settings": "at 10 µM"}, "[3]": {"tested_on": "Phosphatidylinositol 4,5-bisphosphate 3-kinase catalytic subunit alpha isoform (Homo sapiens), P42336 [Q546K]", "sequence (P42336 whole entry Q546K, canonical isoform)": "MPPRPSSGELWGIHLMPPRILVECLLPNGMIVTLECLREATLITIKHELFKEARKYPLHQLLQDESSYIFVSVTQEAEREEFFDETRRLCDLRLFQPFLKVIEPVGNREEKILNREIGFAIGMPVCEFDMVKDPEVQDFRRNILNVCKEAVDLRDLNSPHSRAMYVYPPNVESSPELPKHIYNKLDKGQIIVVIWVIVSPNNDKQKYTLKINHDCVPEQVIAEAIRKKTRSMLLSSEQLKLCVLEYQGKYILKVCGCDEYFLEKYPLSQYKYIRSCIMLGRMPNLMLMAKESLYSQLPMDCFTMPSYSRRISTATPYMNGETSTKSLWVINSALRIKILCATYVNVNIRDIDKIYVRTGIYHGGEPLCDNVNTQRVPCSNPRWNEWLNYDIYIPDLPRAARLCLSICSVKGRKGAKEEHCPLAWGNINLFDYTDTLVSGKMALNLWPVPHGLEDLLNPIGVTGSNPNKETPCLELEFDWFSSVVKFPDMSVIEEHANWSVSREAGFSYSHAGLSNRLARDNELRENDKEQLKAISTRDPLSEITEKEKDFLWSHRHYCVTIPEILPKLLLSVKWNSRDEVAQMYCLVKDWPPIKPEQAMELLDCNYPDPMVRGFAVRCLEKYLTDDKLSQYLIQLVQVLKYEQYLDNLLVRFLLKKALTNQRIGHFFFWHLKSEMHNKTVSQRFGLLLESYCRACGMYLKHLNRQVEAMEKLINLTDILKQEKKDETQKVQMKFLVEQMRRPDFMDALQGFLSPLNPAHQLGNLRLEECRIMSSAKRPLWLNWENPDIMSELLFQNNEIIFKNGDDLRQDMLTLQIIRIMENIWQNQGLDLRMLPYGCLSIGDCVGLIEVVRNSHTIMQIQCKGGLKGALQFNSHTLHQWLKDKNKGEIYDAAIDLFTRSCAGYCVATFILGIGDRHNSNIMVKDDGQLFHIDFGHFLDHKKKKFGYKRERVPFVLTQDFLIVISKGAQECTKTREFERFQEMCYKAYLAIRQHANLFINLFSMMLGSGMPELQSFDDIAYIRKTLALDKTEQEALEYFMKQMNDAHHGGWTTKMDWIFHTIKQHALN", "settings": "at 10 µM"}, "Mu-type opioid receptor": {"target": "Mu-type opioid receptor (Homo sapiens, UniProt P35372)", "sequence (P35372 whole entry)": "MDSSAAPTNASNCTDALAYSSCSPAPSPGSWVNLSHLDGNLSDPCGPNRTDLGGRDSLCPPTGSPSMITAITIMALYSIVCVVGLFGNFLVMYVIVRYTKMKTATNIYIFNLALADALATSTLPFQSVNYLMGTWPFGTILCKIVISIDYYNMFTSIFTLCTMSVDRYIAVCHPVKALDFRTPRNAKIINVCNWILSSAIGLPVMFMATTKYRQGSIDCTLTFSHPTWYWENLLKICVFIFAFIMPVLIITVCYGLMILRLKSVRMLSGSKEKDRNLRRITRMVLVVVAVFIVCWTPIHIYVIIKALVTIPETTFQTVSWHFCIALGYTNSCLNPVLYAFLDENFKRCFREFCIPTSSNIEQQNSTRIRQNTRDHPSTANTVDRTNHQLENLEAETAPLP", "assay": "Selectivity interaction (Panel of kinases, GPCRs, ion channels and transporters (enzymatic assay)) EUB0000266bCl OPRM1"}, "[4]": {"target": "Tyrosine-protein kinase BTK (Homo sapiens, UniProt Q06187)", "sequence (Q06187 whole entry)": "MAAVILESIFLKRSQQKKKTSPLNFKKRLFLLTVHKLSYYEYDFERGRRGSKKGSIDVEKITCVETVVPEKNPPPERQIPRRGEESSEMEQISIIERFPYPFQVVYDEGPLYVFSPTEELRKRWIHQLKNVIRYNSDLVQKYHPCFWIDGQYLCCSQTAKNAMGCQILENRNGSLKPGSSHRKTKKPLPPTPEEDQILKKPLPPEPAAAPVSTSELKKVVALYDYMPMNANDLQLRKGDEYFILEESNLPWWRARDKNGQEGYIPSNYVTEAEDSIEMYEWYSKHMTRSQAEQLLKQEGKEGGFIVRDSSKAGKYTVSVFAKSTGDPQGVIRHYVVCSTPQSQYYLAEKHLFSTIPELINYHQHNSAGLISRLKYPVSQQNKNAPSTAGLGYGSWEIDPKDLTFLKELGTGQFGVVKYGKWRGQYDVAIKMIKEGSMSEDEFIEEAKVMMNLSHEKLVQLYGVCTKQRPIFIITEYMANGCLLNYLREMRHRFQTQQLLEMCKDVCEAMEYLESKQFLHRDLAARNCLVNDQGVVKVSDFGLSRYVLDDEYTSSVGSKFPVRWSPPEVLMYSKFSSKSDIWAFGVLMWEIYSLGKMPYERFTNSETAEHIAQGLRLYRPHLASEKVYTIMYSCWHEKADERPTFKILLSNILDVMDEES", "assay": "Selectivity interaction (ActivX KiNativ screen (kinase selectivity in THP-1 cell lysates)) EUB0000639a BTK", "assay_type": "subcellular", "settings": "lysate"}, "[5]": {"target": "Phosphatidylinositol 4-kinase type 2-beta (Homo sapiens) (UniProt Q8TCG2)", "sequence (Q8TCG2 whole entry)": "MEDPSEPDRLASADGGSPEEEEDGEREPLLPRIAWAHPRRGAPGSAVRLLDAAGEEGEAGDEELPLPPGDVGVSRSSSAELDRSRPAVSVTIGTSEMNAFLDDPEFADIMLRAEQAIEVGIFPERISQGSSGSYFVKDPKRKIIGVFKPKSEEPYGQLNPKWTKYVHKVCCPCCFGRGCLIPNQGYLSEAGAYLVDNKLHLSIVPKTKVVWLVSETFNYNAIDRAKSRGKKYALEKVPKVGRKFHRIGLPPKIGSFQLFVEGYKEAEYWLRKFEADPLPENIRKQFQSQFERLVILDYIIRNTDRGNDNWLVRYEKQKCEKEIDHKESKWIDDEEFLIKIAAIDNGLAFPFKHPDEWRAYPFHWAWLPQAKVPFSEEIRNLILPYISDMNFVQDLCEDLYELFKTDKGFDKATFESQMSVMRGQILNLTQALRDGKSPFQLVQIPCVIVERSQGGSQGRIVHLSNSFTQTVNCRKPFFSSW", "assay": "Selectivity interaction (ProQinase) EUB0000171b PI4K2B"}, "[6]": {"target": "T2, Serine/threonine-protein kinase 3 (Homo sapiens) (UniProt Q13188)", "T2 sequence (whole entry)": "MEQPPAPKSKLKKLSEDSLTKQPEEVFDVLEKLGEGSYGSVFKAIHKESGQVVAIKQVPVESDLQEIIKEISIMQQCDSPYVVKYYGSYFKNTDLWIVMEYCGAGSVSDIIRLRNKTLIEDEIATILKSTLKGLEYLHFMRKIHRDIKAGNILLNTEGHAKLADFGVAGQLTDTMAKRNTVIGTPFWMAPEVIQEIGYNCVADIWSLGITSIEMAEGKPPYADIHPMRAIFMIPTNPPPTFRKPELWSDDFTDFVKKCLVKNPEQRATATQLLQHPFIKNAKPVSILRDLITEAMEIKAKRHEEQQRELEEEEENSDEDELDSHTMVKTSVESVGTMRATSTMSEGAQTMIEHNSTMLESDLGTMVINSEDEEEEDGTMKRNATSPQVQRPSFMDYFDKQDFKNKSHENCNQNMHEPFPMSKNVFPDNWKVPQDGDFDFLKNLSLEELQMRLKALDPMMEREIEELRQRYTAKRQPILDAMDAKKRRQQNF", "assay": "Selectivity interaction (Ambit KINOMEscan and KiNATiv profiling in Jurkat cells) EUB0000090b STK3", "assay_type": "cell-based", "settings": "at 1 µM"}, "D(1A) dopamine receptor": {"target": "D(1A) dopamine receptor (Homo sapiens, UniProt P21728)", "sequence (P21728 whole entry)": "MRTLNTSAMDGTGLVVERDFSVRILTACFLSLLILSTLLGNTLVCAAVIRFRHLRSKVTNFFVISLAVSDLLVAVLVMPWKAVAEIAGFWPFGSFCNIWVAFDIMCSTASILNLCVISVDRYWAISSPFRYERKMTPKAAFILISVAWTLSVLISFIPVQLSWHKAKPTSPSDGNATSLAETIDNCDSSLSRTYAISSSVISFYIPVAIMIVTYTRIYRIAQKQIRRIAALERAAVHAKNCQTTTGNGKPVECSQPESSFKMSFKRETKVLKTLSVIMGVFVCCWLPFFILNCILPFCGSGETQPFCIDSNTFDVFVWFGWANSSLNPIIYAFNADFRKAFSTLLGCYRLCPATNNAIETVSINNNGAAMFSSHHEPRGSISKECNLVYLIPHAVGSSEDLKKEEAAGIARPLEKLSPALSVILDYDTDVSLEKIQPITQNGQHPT", "assay": "Selectivity interaction (Panel of kinases, GPCRs, ion channels and transporters (enzymatic assay)) EUB0000223bCl DRD1"}, "[7]": {"target": "T3, Ephrin type-B receptor 6 (Homo sapiens) (UniProt O15197)", "T3 sequence (whole entry)": "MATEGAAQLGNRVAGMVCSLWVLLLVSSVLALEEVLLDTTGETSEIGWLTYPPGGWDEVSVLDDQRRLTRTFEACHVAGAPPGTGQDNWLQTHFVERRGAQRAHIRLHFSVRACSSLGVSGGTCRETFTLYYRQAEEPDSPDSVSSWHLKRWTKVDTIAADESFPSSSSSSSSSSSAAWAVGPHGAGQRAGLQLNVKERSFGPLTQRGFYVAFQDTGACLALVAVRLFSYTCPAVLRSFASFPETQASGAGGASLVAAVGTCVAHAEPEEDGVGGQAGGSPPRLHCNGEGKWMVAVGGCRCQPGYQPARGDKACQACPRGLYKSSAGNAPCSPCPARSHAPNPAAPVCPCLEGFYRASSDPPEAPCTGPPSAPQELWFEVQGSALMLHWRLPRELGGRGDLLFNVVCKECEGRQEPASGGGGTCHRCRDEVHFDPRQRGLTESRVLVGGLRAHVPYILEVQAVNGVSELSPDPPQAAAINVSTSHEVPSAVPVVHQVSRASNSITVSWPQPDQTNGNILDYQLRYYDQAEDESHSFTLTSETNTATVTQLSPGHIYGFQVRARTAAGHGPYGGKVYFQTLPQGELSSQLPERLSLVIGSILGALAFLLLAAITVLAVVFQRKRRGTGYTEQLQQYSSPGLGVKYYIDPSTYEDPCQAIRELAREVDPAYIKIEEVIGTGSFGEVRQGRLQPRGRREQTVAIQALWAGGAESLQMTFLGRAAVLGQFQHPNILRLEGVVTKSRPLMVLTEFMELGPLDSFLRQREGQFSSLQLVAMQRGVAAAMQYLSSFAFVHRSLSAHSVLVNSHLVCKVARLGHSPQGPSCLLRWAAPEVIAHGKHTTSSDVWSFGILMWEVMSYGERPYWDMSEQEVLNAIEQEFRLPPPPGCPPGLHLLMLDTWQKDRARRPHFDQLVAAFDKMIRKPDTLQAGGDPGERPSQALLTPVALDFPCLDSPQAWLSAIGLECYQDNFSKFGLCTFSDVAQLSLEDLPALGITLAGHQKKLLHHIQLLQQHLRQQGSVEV", "assay": "Selectivity interaction (KinomeScan (DiscoverX)) EUB0000045b EPHB6"}}}
{"smiles": "CNC(=O)Nc1ccc(-c2nc(N3CC4CCC(C3)O4)c3cnn(C4CCC5(CC4)OCCO5)c3n2)cc1", "values": [{"measurement": "% of control", "setting": "[1]", "result": 93, "unit": "%"}, {"measurement": "% of control", "setting": "[2]", "result": 91, "unit": "%"}, {"measurement": "% of control", "setting": "[3]", "result": 11, "unit": "%"}]}
{"smiles": "CCn1c(-c2nc3cc(C(=O)N4CCCC(N)C4)ccc3n2C)cc2ccccc21", "note": "(stereo not given)", "values": [{"measurement": "pXC50", "setting": "Mu-type opioid receptor", "result": "< 4", "unit": "M"}]}
{"smiles": "CC[C@@H]1[C@H](F)C(=O)N[C@@H]1COc1nccc2cc(C(N)=O)c(OC)cc12", "note": "[ZIMLOVISERTIB]", "values": [{"measurement": "% of inhibition", "setting": "[4]; at 0.01 µM", "result": -9.7, "unit": "%"}, {"measurement": "% of inhibition", "setting": "[4]; at 0.04 µM", "result": -8.8, "unit": "%"}, {"measurement": "% of inhibition", "setting": "[4]; at 0.2 µM", "result": 2.6, "unit": "%"}, {"measurement": "% of inhibition", "setting": "[4]; at 1 µM", "result": 11.9, "unit": "%"}, {"measurement": "% of inhibition", "setting": "[4]; at 5 µM", "result": 0.7, "unit": "%"}]}
{"smiles": "C=CC(=O)Nc1cccc(C(=O)Nc2ccc(Nc3cc(-c4[nH]c(SC)nc4C)ccn3)cc2)c1", "values": [{"measurement": "% of control", "setting": "[5]; at 1 µM", "result": 128, "unit": "%"}, {"measurement": "% of control", "setting": "[5]; at 5 µM", "result": 120, "unit": "%"}]}
{"smiles": "CN(C)C/C=C/C(=O)Nc1ccc(C(=O)N2CCCC(Nc3ncc(Cl)c(-c4c[nH]c5ccccc45)n3)C2)cc1", "note": "(stereo not given)", "values": [{"measurement": "% of control", "setting": "[6]", "result": 92, "unit": "%"}]}
{"smiles": "COc1cc(C(=O)N2CC[C@@H](O)[C@@H](N)C2)cc2nc(-c3cc4ccccc4n3CC3CC3)n(C)c12", "values": [{"measurement": "pXC50", "setting": "D(1A) dopamine receptor", "result": "< 4.5", "unit": "M"}]}
{"smiles": "C=CC(=O)Nc1cc(-n2c(=O)ccc3cnc4ccc(-c5ccc(NS(C)(=O)=O)cc5)cc4c32)ccc1C", "values": [{"measurement": "% of control", "setting": "[7]; at 1 µM", "result": 90, "unit": "%"}, {"measurement": "% of control", "setting": "[7]; at 10 µM", "result": 85, "unit": "%"}]}
